≈ marks a conversion by molar mass, not a printed value. Read-outs that look alike come from different tables or passages of the source.
Columns and labels:
Staphylococcus aureus = test: Susceptibility testing (MIC) Assay 1, broth microdilution; type: cell-based; conditions: Staphylococcus aureus
Experimental: (§1) Minimum Inhibitory Concentrations (MICs) were determined by the broth microdilution method in accordance with the Clinical and Laboratory Standards Institute (CLSI) guidelines. In brief, organism suspensions were adjusted to a 0.5 McFarland standard to yield a final inoculum between 3×10^5 and 7×10^5 colony-forming units (CFU)/mL. Bacterial inocula were prepared for most organisms in sterile, cation adjusted Mueller-Hinton Broth (Beckton Dickinson). The streptococci were prepared as above in cation adjusted Mueller-Hinton Broth to which 2.5% lysed horse blood (Hema Resource & Supply Inc.) was added. An inoculum volume of 100 μL was added to wells (using a Tecan EVO robot) containing 2 μL of DMSO containing 2-fold serial dilutions of drug. All inoculated microdilution trays were incubated in ambient air at 35° C. for 18-24 hours. Following incubation, the lowest concentration of the drug that prevented visible growth as read at OD600 nm and confirmed by a visual read using a test reading mirror was recorded as the MIC. Performance of the assay was monitored by the use of laboratory quality-control strains and commercially available control compounds with defined MIC spectrums, in accordance with CLSI guidelines. Table 1 provides the MIC results (μM) of Examples 1-77 tested in Assay 1. Table 2 provides the MIC (μg/mL) results of Examples 78-80 tested in Assay 1.

Streptococcus pyogenes = test: as above; type: cell-based; conditions: Streptococcus pyogenes, Streptococcus pyrgenes, in vivo strain; read-out: Spy MIC
Experimental: as §1

Streptococcus pneumoniae = test: as above; type: cell-based
Experimental: as §1

[1] = molecular target: Escherichia coli DNA gyrase A/B tetramer (Escherichia coli (strain K12), UniProt P0AES4+P0AES6); test: DNA gyrase supercoiling activity fluorescence polarisation assay; type: biochemical; conditions: Eco Gyr FP Mean IC50, E. coli DNA gyrase supercoiling, 0.3 mM ATP
Experimental: In a black, 384-well polystyrene assay plate, 30 microliters/well of 5 nM Escherichia coli DNA gyrase A/B tetramer and 130 micrograms/mL of topologically relaxed plasmid containing the triplex-forming sequence
in an assay buffer consisting of 35 mM Tris-HCl (pH 7.5), 24 mM KCl, 4 mM MgCl2, 2 mM dithiothreitol, 1.8 mM spermidine, 5% (v/v) glycerol, 200 nM bovine serum albumin, 0.8% dimethylsulfoxide, and 0.3 mM ATP were incubated at ambient temperature for (typically 30 minutes) in the absence or presence of 5-10 different concentrations of test compound. The supercoiling reactions were quenched by the addition of 10 microliters/well of 40 nM oligodeoxynucleotide probe in 3× triplex-forming buffer consisting of 150 mM NaCl, and 150 mM sodium acetate at pH 3.5. The oligodeoxynucleotide probe was 5′-BODIPY-FL-labeled
After 60 minutes, the fluorescence anisotropy of the BODIPY-FL was measured in a Tecan Ultra plate reader, using 485 nm excitation and 535 nm emission filters equipped with polarizers. The IC50 was determined by nonlinear regression using two control reactions.

Haemophilus influenzae = test: Susceptibility testing (MIC) Assay 2, broth microdilution; type: cell-based; conditions: ATCC51907, Haemophilus influenzae, ATCC 51907, in vivo strain, read-out: Hin MIC
Experimental: (§2) Minimum Inhibitory Concentrations (MICs) were determined by the broth microdilution method in accordance with the Clinical and Laboratory Standards Institute (CLSI) guidelines. In brief, organism suspensions were adjusted to a 0.5 McFarland standard to yield a final inoculum between 3×10^5 and 7×10^5 colony-forming units (CFU)/mL. Bacterial inocula were generally prepared in sterile, cation adjusted Mueller-Hinton Broth (Becton Dickinson) which included Escherichia coli, Klebsiella pneumoniae, and Pseudomonas aeruginosa. Haemophilus influenzae bacterial inocula were prepared in sterile, cation adjusted Mueller-Hinton Broth (Becton Dickinson) containing 0.5% yeast extract (Becton Dickinson) plus 30 mL of 15 μg/mL Bovine Hematin stock (Sigma), and 3 mL of 15 μg/mL β-nicotinamide adenine dinucleotide (Sigma). Strains of Neisseria were tested for MICs using agar dilution methodology in accordance with CLSI guidelines. For broth microdilution testing, an inoculum volume of 100 μL was added to wells (using a Tecan EVO robot) containing 2 μL of DMSO containing 2-fold serial dilutions of drug. All inoculated microdilution panels were incubated in ambient air at 35° C. for 18-24 hours. Following incubation, the lowest concentration of the drug that prevented visible growth as read at OD600 nm and confirmed by a visual read using a test reading mirror was recorded as the MIC. Performance of the assay was monitored by the use of laboratory quality-control strains and commercially available control compounds with defined MIC spectrums, in accordance with CLSI guidelines. Table 3 provides the MIC results (μM) of Examples 1-77 tested in Assay 2. Table 4 provides the MIC (μg/mL) results of Examples 78-80 tested in Assay 2.

Escherichia coli = test: as above; type: cell-based; conditions: K12, read-out: Eco MIC
Experimental: as §2

Pseudomonas aeruginosa = test: as above; type: cell-based; conditions: PAO1, read-out: Pae MIC
Experimental: as §2

Klebsiella pneumoniae = test: as above; type: cell-based; conditions: clinical isolate, mucoid, read-out: Kpn MIC
Experimental: as §2

[2] = Staphylococcus aureus in vivo strain, MSQS, read-out: Sau(d) MIC
[3] = in vivo strain, MRQR, read-out: Sau(e) MIC
[4] = in vivo strain (footnote b), read-out: Spn(b) MIC
[5] = in vivo strain (footnote c), read-out: Spn(c) MIC

SMILES	MIC (Staphylococcus aureus; [2])	MIC (Staphylococcus aureus; [3])	MIC (Staphylococcus aureus; serum, read-out: Sau(f) MIC)	MIC (Streptococcus pyogenes)	MIC (Streptococcus pneumoniae; [4])	MIC (Streptococcus pneumoniae; [5])	IC50 [1]	MIC (Haemophilus influenzae)	MIC (Escherichia coli)	MIC (Pseudomonas aeruginosa)	MIC (Klebsiella pneumoniae)
CC[C@@H]1COC(=O)N1c1noc2c(F)c3c(cc12)CC1(C(=O)NC(=O)NC1=O)[C@H]1[C@H](C)O[C@H](C)CN31 [Example 7]	6.2 µM (≈ 3.11 µg/mL)	12 µM (≈ 6.02 µg/mL)	25 µM (≈ 12.5 µg/mL)	6.2 µM (≈ 3.11 µg/mL)	25 µM (≈ 12.5 µg/mL)	12 µM (≈ 6.02 µg/mL)	9700 nM	12 µM (≈ 6.02 µg/mL)	200 µM (≈ 100 µg/mL)	> 200 µM	> 200 µM
C[C@@H]1CN2c3c(cc4c(N5C(=O)OC[C@H]5c5ccccc5)noc4c3F)CC3(C(=O)NC(=O)NC3=O)[C@H]2[C@H](C)O1 [Example 8, (2R,4S,4aS)-11-Fluoro-2,4-dimethyl-8-[(4R)-2-oxo-4-phenyl-1,3-oxazolidin-3-yl]-1,2,4,4a-tetrahydro-2′H,6H-spiro[1,4-oxazino[4,3-a][1,2]oxazolo[4,5-g]quinoline-5,5′-pyrimidine]-2′,4′,6′(1′H,3′H)-trione]	6.2 µM (≈ 3.41 µg/mL)	12 µM (≈ 6.59 µg/mL)	200 µM (≈ 110 µg/mL)	12 µM (≈ 6.59 µg/mL)	50 µM (≈ 27.5 µg/mL)	50 µM (≈ 27.5 µg/mL)	7300 nM	12 µM (≈ 6.59 µg/mL)	> 200 µM	> 200 µM	> 200 µM
C[C@@H]1CN2c3c(cc4c(N5C(=O)OC[C@@H]5c5ccccc5)noc4c3F)CC3(C(=O)NC(=O)NC3=O)[C@H]2[C@H](C)O1 [Example 9, (2R,4S,4aS)-11-Fluoro-2,4-dimethyl-8-[(4S)-2-oxo-4-phenyl-1,3-oxazolidin-3-yl]-1,2,4,4a-tetrahydro-2′H,6H-spiro[1,4-oxazino[4,3-a][1,2]oxazolo[4,5-g]quinoline-5,5′-pyrimidine]-2′,4′,6′(1′H,3′H)-trione]	0.78 µM (≈ 0.429 µg/mL)	0.78 µM (≈ 0.429 µg/mL)	12 µM (≈ 6.59 µg/mL)	0.78 µM (≈ 0.429 µg/mL)	1.6 µM (≈ 0.879 µg/mL)	1.6 µM (≈ 0.879 µg/mL)	710 nM	0.39 µM (≈ 0.214 µg/mL)	50 µM (≈ 27.5 µg/mL)	> 200 µM	> 200 µM
C[C@@H]1CN2c3c(cc4c(N5C(=O)OC[C@H]5Cc5ccccc5)noc4c3F)CC3(C(=O)NC(=O)NC3=O)[C@H]2[C@H](C)O1 [Example 10, (2R,4S,4aS)-8-[(4R)-4-Benzyl-2-oxo-1,3-oxazolidin-3-yl]-11-fluoro-2,4-dimethyl-1,2,4,4a-tetrahydro-2′H,6H-spiro[1,4-oxazino[4,3-a][1,2]oxazolo[4,5-g]quinoline-5,5′-pyrimidine]-2′,4′,6′(1′H,3′H)-trione]	6.2 µM (≈ 3.49 µg/mL)	12 µM (≈ 6.76 µg/mL)	200 µM (≈ 113 µg/mL)	25 µM (≈ 14.1 µg/mL)	50 µM (≈ 28.2 µg/mL)	50 µM (≈ 28.2 µg/mL)	6700 nM	25 µM (≈ 14.1 µg/mL)	> 200 µM	> 200 µM	> 200 µM
C[C@@H]1CN2c3c(cc4c(N5C(=O)OC[C@@H]5Cc5ccccc5)noc4c3F)CC3(C(=O)NC(=O)NC3=O)[C@H]2[C@H](C)O1 [Example 11, (2R,4S,4aS)-8-[(4S)-4-Benzyl-2-oxo-1,3-oxazolidin-3-yl]-11-fluoro-2,4-dimethyl-1,2,4,4a-tetrahydro-2′H,6H-spiro[1,4-oxazino[4,3-a][1,2]oxazolo[4,5-g]quinoline-5,5′-pyrimidine]-2′,4′,6′(1′H,3′H)-trione]	1.6 µM (≈ 0.902 µg/mL)	1.6 µM (≈ 0.902 µg/mL)	25 µM (≈ 14.1 µg/mL)	3.1 µM (≈ 1.75 µg/mL)	3.1 µM (≈ 1.75 µg/mL)	3.1 µM (≈ 1.75 µg/mL)	1200 nM	3.1 µM (≈ 1.75 µg/mL)	50 µM (≈ 28.2 µg/mL)	> 200 µM	> 200 µM
CC[C@H]1CN(c2noc3c(F)c4c(cc23)CC2(C(=O)NC(=O)NC2=O)[C@H]2[C@H](C)O[C@H](C)CN42)C(=O)O1 [Example 13, (2R,4S,4aS)-8-[(5S)-5-Ethyl-2-oxo-1,3-oxazolidin-3-yl]-11-fluoro-2,4-dimethyl-1,2,4,4a-tetrahydro-2′H,6H-spiro[1,4-oxazino[4,3-a][1,2]oxazolo[4,5-g]quinoline-5,5′-pyrimidine]-2′,4′,6′(1′H,3′H)-trione]	0.39 µM (≈ 0.196 µg/mL)	0.78 µM (≈ 0.391 µg/mL)	0.78 µM (≈ 0.391 µg/mL)	0.39 µM (≈ 0.196 µg/mL)	0.78 µM (≈ 0.391 µg/mL)	0.78 µM (≈ 0.391 µg/mL)	510 nM	0.78 µM (≈ 0.391 µg/mL)	12 µM (≈ 6.02 µg/mL)	> 200 µM	200 µM (≈ 100 µg/mL)
CC[C@@H]1CN(c2noc3c(F)c4c(cc23)CC2(C(=O)NC(=O)NC2=O)[C@H]2[C@H](C)O[C@H](C)CN42)C(=O)O1 [Example 14, (2R,4S,4aS)-8-[(5R)-5-Ethyl-2-oxo-1,3-oxazolidin-3-yl]-11-fluoro-2,4-dimethyl-1,2,4,4a-tetrahydro-2′H,6H-spiro[1,4-oxazino[4,3-a][1,2]oxazolo[4,5-g]quinoline-5,5′-pyrimidine]-2′,4′,6′(1′H,3′H)-trione]	0.39 µM (≈ 0.196 µg/mL)	0.78 µM (≈ 0.391 µg/mL)	1.6 µM (≈ 0.802 µg/mL)	0.78 µM (≈ 0.391 µg/mL)	0.78 µM (≈ 0.391 µg/mL)	0.78 µM (≈ 0.391 µg/mL)	570 nM	0.78 µM (≈ 0.391 µg/mL)	25 µM (≈ 12.5 µg/mL)	> 200 µM	200 µM (≈ 100 µg/mL)
C[C@@H]1CN2c3c(cc4c(N5C(=O)OC[C@@H]5CF)noc4c3F)CC3(C(=O)NC(=O)NC3=O)[C@H]2[C@H](C)O1 [Example 15, (2R,4S,4aS)-11-Fluoro-8-[(4R)-4-(fluoromethyl)-2-oxo-1,3-oxazolidin-3-yl]-2,4-dimethyl-1,2,4,4a-tetrahydro-2′H,6H-spiro[1,4-oxazino[4,3-a][1,2]oxazolo[4,5-g]quinoline-5,5′-pyrimidine]-2′,4′,6′(1′H,3′H)-trione]	0.28 µM (≈ 0.142 µg/mL)	0.78 µM (≈ 0.394 µg/mL)	0.39 µM (≈ 0.197 µg/mL)	< 0.2 µM	0.28 µM (≈ 0.142 µg/mL)	0.39 µM (≈ 0.197 µg/mL)	130 nM	< 0.2 µM	12 µM (≈ 6.07 µg/mL)	> 200 µM	> 200 µM
